Values after ≈ are worked out from the molar mass of the structure shown. Like-named read-outs stand apart in the source and are kept apart here.
How the values were obtained:
Assay in all cases: Bacterial susceptibility testing (MIC, broth microdilution)
Type in all cases: cell-based
[1] = tested on: E. coli ATCC25922; conditions: Escherichia coli
Method: (§1) Minimal inhibitory concentrations (MIC) were determined by the broth microdilution method in accordance with the Clinical and Laboratory Standards Institute (CLSI) guidelines. In brief, organism suspensions were adjusted to a final inoculum between 3×10^5 and 7×10^5 colony-forming units (CFU)/mL. Drug dilutions and inocula were made in sterile, cation adjusted Mueller-Hinton Broth (Beckton Dickinson). In wells, an inoculum volume of 100 μL was mixed to 2 μL of DMSO with 2-fold serial dilutions of drug. All inoculated microdilution trays were incubated in ambient air at 35° C. for 18-24 h. Following incubation, the lowest concentration of the drug that prevented visible growth (OD600 nm<0.05) was recorded as the MIC. Performance of the assay was monitored by the use of laboratory quality -control strains and compounds with defined MIC spectrum, in accordance with CLSI guidelines.

[2] = tested on: P. aeruginosa ATCC27853; conditions: Pseudomonas aeruginosa
Method: as §1

[3] = tested on: K. pneumoniae ATCC13883; conditions: Klebsiella pneumoniae
Method: as §1

[4] = tested on: P. aeruginosa PAO1; conditions: Pseudomonas aeruginosa
Method: as §1

[5] = ATCC25922, broth microdilution, cation adjusted Mueller-Hinton Broth, 35° C., 18-24 h, read-out: E. coli ATCC25922 MIC
[6] = ATCC27853, broth microdilution, cation adjusted Mueller-Hinton Broth, 35° C., 18-24 h, read-out: P. aeruginosa ATCC27853 MIC
[7] = ATCC13883, broth microdilution, cation adjusted Mueller-Hinton Broth, 35° C., 18-24 h, read-out: K. pneumoniae ATCC13883 MIC
[8] = PAO1, broth microdilution, cation adjusted Mueller-Hinton Broth, 35° C., 18-24 h, read-out: P. aeruginosa PAO1 MIC
[9] = ATCC25922, read-out: E. coli ATCC25922 MIC
[10] = ATCC27853, read-out: P. aeruginosa ATCC27853 MIC
[11] = ATCC13883, read-out: K. pneumoniae ATCC13883 MIC
[12] = PAO1, read-out: P. aeruginosa PAO1 MIC

Row | SMILES | MIC [1, 5] [µg/mL] | MIC [2, 6] [µg/mL] | MIC [3, 7] [µg/mL] | MIC [4, 8] [µg/mL] | MIC [1, 9] [µg/mL] | MIC [2, 10] [µg/mL] | MIC [3, 11] [µg/mL] | MIC [4, 12] [µg/mL]
1 | C[C@H](O)c1nccn1[C@@H](C#Cc1ccc(-c2ccc(O[C@H]3C[C@@H](NCC#N)C3)cc2)cc1)CO (racemic) [Compound 131, 2-((rac-cis)-3-((4′-((S)-4-hydroxy-3-(2-((S)-1-hydroxyethyl)-1H-imidazol-1-yl)but-1-yn-1-yl)-[1,1′-biphenyl]-4-yl)oxy)cyclobutyl)amino) acetonitrile] | 1 (≈ 2.19 µM) | > 32 | 2 (≈ 4.38 µM) | 2 (≈ 4.38 µM) |  |  |  | 
2 | C[C@H](O)c1nccn1[C@@H](C#Cc1ccc(-c2ccc(O[C@H]3C[C@@H](NS(C)(=O)=O)C3)cc2)cc1)CO (racemic) [Compound 132, N-((rac-cis)-3-((4′-((S)-4-hydroxy-3-(2-((S)-1-hydroxyethyl)-1H-imidazol-1-yl)but-1-yn-1-yl)-[1,1′-biphenyl]-4-yl)oxy)cyclobutyl)methane-sulfonamide] | 2 (≈ 4.04 µM) | 4 (≈ 8.07 µM) | > 32 | 4 (≈ 8.07 µM) |  |  |  | 
3 | C[C@H](O)c1nccn1[C@@H](C#Cc1ccc(-c2ccc(O[C@H]3C[C@H](CNCC#N)C3)cc2)cc1)CO (racemic) [Compound 133, 2-((((rac-trans)-3-((4′-((S)-4-hydroxy-3-(2-((S)-1-hydroxyethyl)-1H-imidazol-1-yl)but-1-yn-1-yl)-[1,1′-biphenyl]-4-yl)oxy)cyclobutyl)methyl)amino) acetonitrile] | 1 (≈ 2.13 µM) | 4 (≈ 8.5 µM) | 8 (≈ 17 µM) | 4 (≈ 8.5 µM) |  |  |  | 
4 | CC(=O)N[C@H]1C[C@@H](c2ccc(-c3ccc(C#C[C@@H](CO)n4ccnc4[C@H](C)O)cc3)cc2)C1 (racemic) [Compound 135, N-((rac-cis)-3-(4′-((S)-4-hydroxy-3-(2-((S)-1-hydroxyethyl)-1H-imidazol-1-yl)but-1-yn-1-yl)-[1,1′-biphenyl]-4-yl)cyclobutyl)acetamide] | 0.5 (≈ 1.13 µM) | 2 (≈ 4.51 µM) | 2 (≈ 4.51 µM) | 2 (≈ 4.51 µM) |  |  |  | 
5 | CNC(=O)[C@H]1C[C@@H](Oc2ccc(-c3ccc(C#C[C@@H](CO)n4ccnc4[C@H](C)O)cc3)cc2)C1 (racemic) [Compound 137, (rac-cis)-3-((4′-((S)-4-hydroxy-3-(2-((S)-1-hydroxyethyl)-1H-imidazol-1-yl)but-1-yn-1-yl)-[1,1′-biphenyl]-4-yl)oxy)-N-methylcyclobutane-1-carboxamide] | 0.5 (≈ 1.09 µM) | 1 (≈ 2.18 µM) | 2 (≈ 4.35 µM) | 0.5 (≈ 1.09 µM) |  |  |  | 
6 | C[C@H](O)c1nccn1[C@@H](C#Cc1ccc(-c2ccc(O[C@@H]3C[C@H]3NCC#N)cc2)cc1)CO (racemic) [Compound 141, 2-(((rac-trans)-2-((4′-((S)-4-hydroxy-3-(2-((S)-1-hydroxyethyl)-1H-imidazol-1-yl)but-1-yn-1-yl)-[1,1′-biphenyl]-4-yl)oxy)cyclopropyl)amino) acetonitrile] |  |  |  |  | 1 (≈ 2.26 µM) | 8 (≈ 18.1 µM) | 1 (≈ 2.26 µM) | 2 (≈ 4.52 µM)
7 | C[C@H](O)c1nccn1[C@@H](C#Cc1ccc(-c2ccc(O[C@H]3C[C@@H](CNCC#N)C3)cc2)cc1)CO (racemic) [Compound 142, 2-((((rac-cis)-3-((4′-((S)-4-hydroxy-3-(2-((S)-1-hydroxyethyl)-1H-imidazol-1-yl)but-1-yn-1-yl)-[1,1′-biphenyl]-4-yl)oxy)cyclobutyl)methyl)amino)acetonitrile] |  |  |  |  | 1 (≈ 2.13 µM) | 4 (≈ 8.5 µM) | 2 (≈ 4.25 µM) | 2 (≈ 4.25 µM)
8 | C[C@H](O)c1nccn1[C@@H](C#Cc1ccc(-c2ccc(O[C@H]3COC[C@@H]3O)cc2F)cc1)CO (single isomer, unassigned) [Compound 2] | 1 (≈ 2.21 µM) | 4 (≈ 8.84 µM) | 2 (≈ 4.42 µM) | 2 (≈ 4.42 µM) |  |  |  | 
9 | C[C@H](O)c1nccn1[C@@H](C#Cc1ccc(-c2ccc(O[C@@H]3COC[C@H]3O)cc2F)cc1)CO (single isomer, unassigned) [Compound 3] | 1 (≈ 2.21 µM) | 2 (≈ 4.42 µM) | 2 (≈ 4.42 µM) | 2 (≈ 4.42 µM) |  |  |  | 
10 | C[C@H](O)c1nccn1[C@@H](C#Cc1ccc(-c2ccc(OC3COC[C@@H]3O)c(F)c2)cc1)CO (single isomer, unassigned) [Compound 7] | 1 (≈ 2.21 µM) | 4 (≈ 8.84 µM) | 4 (≈ 8.84 µM) | 2 (≈ 4.42 µM) |  |  |  | 
11 | C[C@H](O)c1nccn1[C@@H](C#Cc1ccc(-c2ccc(OC3COC[C@H]3O)c(F)c2)cc1)CO (single isomer, unassigned) [Compound 8] | 2 (≈ 4.42 µM) | 4 (≈ 8.84 µM) | 4 (≈ 8.84 µM) | 2 (≈ 4.42 µM) |  |  |  | 
12 | C[C@H](O)c1nccn1[C@@H](C#Cc1ccc(-c2ccc(O[C@@H]3COC[C@H]3O)c(F)c2)c(F)c1)CO (single isomer, unassigned) [Compound 10] | 1 (≈ 2.13 µM) | 8 (≈ 17 µM) | 2 (≈ 4.25 µM) | 4 (≈ 8.5 µM) |  |  |  | 
13 | C[C@H](O)c1nccn1[C@@H](C#Cc1ccc(-c2ccc(O[C@H]3COC[C@@H]3O)c(F)c2)c(F)c1)CO (single isomer, unassigned) [Compound 11] | 1 (≈ 2.13 µM) | 8 (≈ 17 µM) | 4 (≈ 8.5 µM) | 4 (≈ 8.5 µM) |  |  |  | 
14 | C[C@H](O)c1nccn1[C@@H](C#Cc1ccc(-c2ccc(O[C@@H]3COC[C@H]3O)c(F)c2F)cc1)CO (single isomer, unassigned) [Compound 13] | 2 (≈ 4.25 µM) | 16 (≈ 34 µM) | 4 (≈ 8.5 µM) | 4 (≈ 8.5 µM) |  |  |  | 
15 | C[C@H](O)c1nccn1[C@@H](C#Cc1ccc(-c2ccc(O[C@H]3COC[C@@H]3O)c(F)c2F)cc1)CO (single isomer, unassigned) [Compound 14] | 2 (≈ 4.25 µM) | 8 (≈ 17 µM) | 4 (≈ 8.5 µM) | 4 (≈ 8.5 µM) |  |  |  | 
16 | C[C@H](O)c1nccn1[C@@H](C#Cc1ccc(-c2ccc(CO[C@H]3COC[C@@H]3O)c(F)c2)cc1)CO (single isomer, unassigned) [Compound 45] | 1 (≈ 2.14 µM) | 4 (≈ 8.57 µM) | 2 (≈ 4.29 µM) | 2 (≈ 4.29 µM) |  |  |  | 
17 | C[C@H](O)c1nccn1[C@@H](C#Cc1ccc(-c2ccc(O[C@@H]3COC[C@H]3O)cc2Cl)cc1)CO (single isomer, unassigned) [Compound 47] | 1 (≈ 2.13 µM) | 4 (≈ 8.53 µM) | 4 (≈ 8.53 µM) | 4 (≈ 8.53 µM) |  |  |  | 
18 | C[C@H](O)c1nccn1[C@@H](C#Cc1ccc(-c2ccc(O[C@H]3COC[C@@H]3O)cc2Cl)cc1)CO (single isomer, unassigned) [Compound 48] | 1 (≈ 2.13 µM) | 4 (≈ 8.53 µM) | 4 (≈ 8.53 µM) | 2 (≈ 4.26 µM) |  |  |  | 
19 | C[C@H](O)c1nccn1[C@@H](C#Cc1ccc(-c2ccc(CO[C@@H]3COC[C@H]3O)cc2F)cc1)CO (single isomer, unassigned) [Compound 49] | 0.5 (≈ 1.07 µM) | 4 (≈ 8.57 µM) | 1 (≈ 2.14 µM) | 2 (≈ 4.29 µM) |  |  |  | 
20 | C[C@H](O)c1nccn1[C@@H](C#Cc1ccc(-c2ccc(CO[C@H]3COC[C@@H]3O)cc2F)cc1)CO (single isomer, unassigned) [Compound 50] | 0.5 (≈ 1.07 µM) | 4 (≈ 8.57 µM) | 2 (≈ 4.29 µM) | 2 (≈ 4.29 µM) |  |  |  | 
21 | C[C@H](O)c1nccn1[C@@H](C#Cc1ccc(-c2ccc(O[C@@H]3CCOC[C@H]3O)c(F)c2)cc1)CO (single isomer, unassigned) [Compound 52] | 1 (≈ 2.14 µM) | 8 (≈ 17.1 µM) | 2 (≈ 4.29 µM) | 2 (≈ 4.29 µM) |  |  |  | 
22 | C[C@H](O)c1nccn1[C@@H](C#Cc1ccc(-c2ccc(O[C@H]3CCOC[C@@H]3O)c(F)c2)cc1)CO (single isomer, unassigned) [Compound 53] | 1 (≈ 2.14 µM) | 8 (≈ 17.1 µM) | 4 (≈ 8.57 µM) | 4 (≈ 8.57 µM) |  |  |  | 
23 | C[C@H](O)c1nccn1[C@@H](C#Cc1ccc(-c2ccc(O[C@@H]3CCOC[C@H]3O)cc2F)cc1)CO (single isomer, unassigned) [Compound 55] | 1 (≈ 2.14 µM) | 8 (≈ 17.1 µM) | 4 (≈ 8.57 µM) | 4 (≈ 8.57 µM) |  |  |  | 

From patent publication US20260049092A1, “ANTIBACTERIAL COMPOUNDS” (Blacksmith Medicines, Inc., priority 2022, published 2026)
